From US12491160B2, “Formulations of a farnesoid X receptor agonist” (ELI LILLY AND COMPANY, priority 2020, dated 2025)

Key:
FXR = biological target: T1, FXR (Homo sapiens, UniProt Q96RI1); conditions: published clinical studies, higher administered doses; cited from earlier work
T1 sequence (Q96RI1 1-486): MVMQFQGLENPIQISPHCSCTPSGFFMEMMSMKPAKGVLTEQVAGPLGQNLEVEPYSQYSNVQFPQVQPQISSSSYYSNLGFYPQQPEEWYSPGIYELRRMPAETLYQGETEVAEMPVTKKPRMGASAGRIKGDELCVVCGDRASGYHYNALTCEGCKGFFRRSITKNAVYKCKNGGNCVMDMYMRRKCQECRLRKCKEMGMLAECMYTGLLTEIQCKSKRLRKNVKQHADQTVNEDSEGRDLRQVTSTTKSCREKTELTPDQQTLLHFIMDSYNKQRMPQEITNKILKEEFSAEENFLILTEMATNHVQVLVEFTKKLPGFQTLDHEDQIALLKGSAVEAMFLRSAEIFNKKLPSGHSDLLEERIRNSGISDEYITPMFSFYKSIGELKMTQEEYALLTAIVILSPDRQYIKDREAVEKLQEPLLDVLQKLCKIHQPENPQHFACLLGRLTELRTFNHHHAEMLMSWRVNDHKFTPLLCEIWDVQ

hFXR = biological target: T2, hFXR (Homo sapiens, UniProt Q96RI1); experiment: In Vitro FXR Assay (TK); format: cell-based; conditions: transfected CV-1 cells (hFXR, hRXR, TK-ECRE-luc), 18 hrs incubation, luminescence
T2 construct: expressed in transfected cells; host or cells: CV-1 cells
T2 sequence (Q96RI1 1-486): T1 sequence (Q96RI1 1-486)
T2 sequence (P19793 1-462 partner): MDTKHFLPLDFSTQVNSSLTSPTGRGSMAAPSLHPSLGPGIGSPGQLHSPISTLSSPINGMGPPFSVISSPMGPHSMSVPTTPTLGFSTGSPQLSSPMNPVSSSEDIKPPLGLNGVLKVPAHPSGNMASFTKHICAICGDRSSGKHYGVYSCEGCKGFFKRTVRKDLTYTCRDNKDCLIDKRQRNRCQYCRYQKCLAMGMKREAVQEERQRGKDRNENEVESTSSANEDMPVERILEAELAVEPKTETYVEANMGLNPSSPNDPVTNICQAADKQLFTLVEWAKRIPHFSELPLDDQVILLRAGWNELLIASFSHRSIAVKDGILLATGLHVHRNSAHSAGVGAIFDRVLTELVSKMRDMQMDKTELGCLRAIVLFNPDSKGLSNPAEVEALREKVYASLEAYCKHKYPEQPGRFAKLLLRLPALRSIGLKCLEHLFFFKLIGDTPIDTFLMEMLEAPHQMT
Description: CV-1 cells were seeded at a density of 2,000,000 cells in a T175 flask with DMEM+10% charcoal double-stripped FBS and incubated at 37° C. in 5% CO2 for 18 h (O/N).
After 18 h of incubation, the medium in the T175 flask was changed with fresh DMEM+10% charcoal super-stripped serum. In a polypropylene tube, 2500 μL OptiMEM (Life Technologies, Cat #31985-062) was combined with expression plasmids for hFXR, hRXR, TK-ECRE-luc and pCMX-YFP. The tube was then briefly vortexed and incubated at room temperature for 5 minutes. Transfection reagent (X-tremeGENE HP from Roche, Cat #06 366 236 001) was added to the OptiMEM/plasmid mixture vortexed and incubated at room temperature for 20 minutes. Following incubation, the transfection reagent/DNA mixture complex was added to cells in the T175 flask and the cells were incubated at 37° C. in 5% CO2 for 18 h (O/N).
Compound 1 was serially diluted in DMSO and added to transfected CV-1 cells. The cells were then incubated for 18 hrs. The next day cells were lysed and examined for luminescence. Compound 1 TK hFXR: EC50≤0.01 μM.

SMILES | adverse side effects (FXR) | EC50 (hFXR) [nM]
CC[C@H]1[C@@H](O)[C@@H]2[C@H](CC[C@]3(C)[C@@H]([C@H](C)CCC(=O)O)CC[C@@H]23)[C@@]2(C)CC[C@@H](O)C[C@@H]12 [OCA, Obeticholic acid] | adverse side effects at higher administered doses, such as pruritis, increased LDL cholesterol and liver toxicity | –
COc1ccc(C23CCC(CN(c4cc(-c5cnn(C(C)(C)C)c5)ccn4)C(=O)[C@H]4CC[C@H](OC(=O)N5CC(O)C5)CC4)(CC2)CC3)cc1C [Compound 1, 4-((4-(1-(tert-butyl)-1H-pyrazol-4-yl)pyridin-2-yl)((4-(4-methoxy-3-methylphenyl)bicyclo[2.2.2]octan-1-yl)methyl)carbamoyl)cyclohexyl 3-hydroxyazetidine-trans-1-carboxylate] | – | ≤ 10
